Assay results published in ChEMBL document CHEMBL1201862, “PubChem BioAssay data set” (2004).
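Dose response: 5 concentrations. Exposure: 48 h. Format: 96-well plates. Endpoint: linear interpolation; highest concentration if not reached. The concentration for 50% growth inhibition is given as GI50.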 Activity calls are given as the source filed them. Rule as the data show it: active = GI50 up to about 1.1 µM and inactive = higher.

Legend:
Experiment in all cases: inhibition of tumour cell growth, NCI panel, 48 h
[1] = test system: OVCAR-3
[2] = test system: HCT-116
[3] = test system: OVCAR-5
[4] = test system: U-251
[5] = test system: HCC 2998
[6] = test system: A549
[7] = test system: K562
[8] = test system: ACHN
[9] = test system: HT-29
[10] = test system: Hs-578T
[11] = test system: NCI-H522
[12] = test system: HOP-62
[13] = test system: Malme-3M
[14] = test system: COLO 205
[15] = test system: RPMI-8226
[16] = test system: RXF 393
[17] = test system: HCT-15
[18] = test system: MCF7
[19] = test system: NCI/ADR-RES
[20] = test system: SNB-75
[21] = test system: UO-31
[22] = test system: DU-145
[23] = test system: UACC-257
[24] = test system: SK-OV-3
[25] = test system: SF-539
[26] = test system: M14
[27] = test system: HL-60
[28] = test system: PC-3
[29] = test system: IGROV-1
[30] = test system: SF-295
[31] = test system: MOLT-4
[32] = test system: LOX IMVI
[33] = test system: BT-549
[34] = test system: MDA-MB-435
[35] = test system: CCRF-CEM
[36] = test system: SK-MEL-2
[37] = test system: NCI-H460
[38] = test system: SN12C
[39] = test system: TK-10
[40] = test system: NCI-H23
[41] = test system: KM12
[42] = test system: SW-620
[43] = test system: SF-268
[44] = test system: SK-MEL-5
[45] = test system: EKVX
[46] = test system: HOP-92
[47] = test system: OVCAR-4
[48] = test system: A498
[49] = test system: T47D
[50] = test system: MDA-MB-231
[51] = test system: OVCAR-8
[52] = test system: NCI-H226
[53] = test system: MDA-N
[54] = test system: SNB-19
[55] = test system: 786-0
[56] = test system: CAKI-1
[57] = test system: UACC-62
[58] = test system: SK-MEL-28

Clc1ccc(Nc2nnc(CNc3ccc(-c4nnc(Nc5ccc(Cl)cc5)o4)cc3)o2)cc1
GI50 [1]: 11.2 µM (inactive) | GI50 [2]: 12.2 µM (inactive) | GI50 [3]: 19.6 µM (inactive) | GI50 [4]: 8.71 µM (inactive) | GI50 [5]: 5.14 µM (inactive) | GI50 [6]: 13.6 µM (inactive) | GI50 [7]: 0.504 µM (active) | GI50 [8]: 17.1 µM (inactive) | GI50 [9]: 12.2 µM (inactive) | GI50 [10]: 17.8 µM (inactive) | GI50 [11]: 16 µM (inactive) | GI50 [12]: 18.9 µM (inactive) | GI50 [13]: 14.7 µM (inactive) | GI50 [14]: 19.8 µM (inactive) | GI50 [15]: 9.42 µM (inactive) | GI50 [16]: 18.5 µM (inactive) | GI50 [17]: 14.9 µM | GI50 [18]: 10.9 µM (inactive) | GI50 [19]: 29.7 µM (inactive) | GI50 [20]: 24.8 µM (inactive) | GI50 [21]: 14.5 µM (inactive) | GI50 [22]: 12.7 µM (inactive) | GI50 [23]: 20.3 µM (inactive) | GI50 [24]: 22.6 µM (inactive) | GI50 [25]: 18.6 µM (inactive) | GI50 [26]: 17.1 µM (inactive) | GI50 [27]: 2.63 µM (inactive) | GI50 [28]: 11.8 µM (inactive) | GI50 [29]: 14.1 µM (inactive) | GI50 [30]: 19.9 µM (inactive) | GI50 [31]: 6.35 µM (inactive) | GI50 [32]: 6.95 µM (inactive) | GI50 [33]: 17.7 µM (inactive) | GI50 [34]: 12.9 µM (inactive) | GI50 [35]: 7.13 µM (inactive) | GI50 [36]: 18.3 µM (inactive) | GI50 [37]: 14.9 µM (inactive) | GI50 [38]: 16 µM (inactive) | GI50 [39]: 14 µM (inactive) | GI50 [40]: 15.9 µM (inactive) | GI50 [41]: 8.36 µM (inactive) | GI50 [42]: 20.9 µM (inactive) | GI50 [43]: 21.2 µM (inactive) | GI50 [44]: 15.9 µM (inactive) | GI50 [45]: 22.3 µM (inactive) | GI50 [46]: 23.9 µM (inactive) | GI50 [47]: 17.4 µM (inactive) | GI50 [48]: 14.9 µM (inactive) | GI50 [49]: 24.6 µM (inactive) | GI50 [50]: 7.93 µM (inactive) | GI50 [51]: 8.87 µM (inactive) | GI50 [52]: 20.9 µM (inactive) | GI50 [53]: 14.3 µM (inactive) | GI50 [54]: 18.7 µM (inactive) | GI50 [55]: 8 µM (inactive) | GI50 [56]: 17.9 µM (inactive) | GI50 [57]: 13.6 µM (inactive) | GI50 [58]: 17.2 µM (inactive)
